Tested on: endotoxemic pigs (E. coli endotoxin infusion)
[1] = during the endotoxemic period, versus fat emulsion

CC(C)c1cccc(C(C)C)c1O [propofol, 2,6-diisopropylphenol]
deaths from hypotension and/or release of gut bacteria into the bloodstream (already anaesthetised endotoxaemic pigs): No deaths
arterial carbon dioxide tension (PaCO2) [1]: lower
arterial oxygen tension (PaO2) [1]: higher
counteracting endotoxin induced deterioration of arterial oxygen tension (PaO2) (endotoxaemic pigs): effective

Reference: patent publication US20020037933A1, “Management of septic shock” (priority 2000, published 2002)
